In ChEMBL document CHEMBL5465560, “Selectivity Literature for EUbOPEN Chemogenomic Library” (2024) one finds % of inhibition, % activity and % of control data, which are given here for nine molecules.

For assay [1], the target named is Serine/threonine-protein kinase OSR1 (Homo sapiens) (UniProt O95747). Description: Selectivity interaction (LanthaScreen Eu Kinase Binding Assay) EUB0001632a OXSR1. To be noted: at 10 µM. (In TR-FRET formats the signal depends on donor and acceptor labels being close together.)
Sequence of Serine/threonine-protein kinase OSR1 (Homo sapiens) (O95747 2-527 limits assumed): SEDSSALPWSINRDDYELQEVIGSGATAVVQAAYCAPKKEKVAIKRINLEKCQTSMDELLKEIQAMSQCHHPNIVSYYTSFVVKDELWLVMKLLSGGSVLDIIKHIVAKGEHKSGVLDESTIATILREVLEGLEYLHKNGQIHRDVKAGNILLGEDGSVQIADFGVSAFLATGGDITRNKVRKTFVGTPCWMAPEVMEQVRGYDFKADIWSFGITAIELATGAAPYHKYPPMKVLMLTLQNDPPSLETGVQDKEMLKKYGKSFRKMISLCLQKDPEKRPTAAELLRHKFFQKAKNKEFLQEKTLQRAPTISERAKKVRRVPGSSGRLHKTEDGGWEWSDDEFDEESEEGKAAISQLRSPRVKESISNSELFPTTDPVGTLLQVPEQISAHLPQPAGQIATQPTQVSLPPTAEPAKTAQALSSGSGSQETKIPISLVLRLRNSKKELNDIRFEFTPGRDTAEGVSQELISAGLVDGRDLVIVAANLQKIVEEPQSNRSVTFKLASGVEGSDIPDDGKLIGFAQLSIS
In assay [2] the target is Polycomb protein SUZ12 (Homo sapiens) (UniProt Q15022). Description: Selectivity interaction (Methyltransferase screen (Scintillation proximity assays)) EUB0000255b SUZ12. (Scintillation proximity formats need no separation of bound from free tracer.)
Sequence of Polycomb protein SUZ12 (Homo sapiens) (Q15022 whole entry): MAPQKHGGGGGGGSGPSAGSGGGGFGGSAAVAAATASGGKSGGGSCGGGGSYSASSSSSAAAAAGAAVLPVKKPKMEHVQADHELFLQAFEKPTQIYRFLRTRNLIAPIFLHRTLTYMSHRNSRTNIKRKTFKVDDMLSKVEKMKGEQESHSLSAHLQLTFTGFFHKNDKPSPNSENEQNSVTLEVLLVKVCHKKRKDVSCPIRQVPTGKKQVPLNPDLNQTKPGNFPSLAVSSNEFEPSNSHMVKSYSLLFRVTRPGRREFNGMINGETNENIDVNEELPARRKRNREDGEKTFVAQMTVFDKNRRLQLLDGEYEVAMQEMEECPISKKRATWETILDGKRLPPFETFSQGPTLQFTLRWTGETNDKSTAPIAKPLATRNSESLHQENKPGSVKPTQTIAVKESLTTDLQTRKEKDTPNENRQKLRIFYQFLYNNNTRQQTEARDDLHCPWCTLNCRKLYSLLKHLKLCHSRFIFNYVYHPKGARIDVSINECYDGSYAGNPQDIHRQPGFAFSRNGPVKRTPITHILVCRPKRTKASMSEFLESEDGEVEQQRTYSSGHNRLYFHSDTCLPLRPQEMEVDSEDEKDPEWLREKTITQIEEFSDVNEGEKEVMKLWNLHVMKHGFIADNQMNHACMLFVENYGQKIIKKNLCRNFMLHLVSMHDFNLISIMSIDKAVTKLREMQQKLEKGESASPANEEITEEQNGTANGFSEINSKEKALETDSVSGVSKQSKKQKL
The target of assay [3] is Serine/threonine-protein kinase NIM1 (Homo sapiens, UniProt Q8IY84). The settings on record: at 10 µM.
Sequence of Serine/threonine-protein kinase NIM1 (Q8IY84 whole entry): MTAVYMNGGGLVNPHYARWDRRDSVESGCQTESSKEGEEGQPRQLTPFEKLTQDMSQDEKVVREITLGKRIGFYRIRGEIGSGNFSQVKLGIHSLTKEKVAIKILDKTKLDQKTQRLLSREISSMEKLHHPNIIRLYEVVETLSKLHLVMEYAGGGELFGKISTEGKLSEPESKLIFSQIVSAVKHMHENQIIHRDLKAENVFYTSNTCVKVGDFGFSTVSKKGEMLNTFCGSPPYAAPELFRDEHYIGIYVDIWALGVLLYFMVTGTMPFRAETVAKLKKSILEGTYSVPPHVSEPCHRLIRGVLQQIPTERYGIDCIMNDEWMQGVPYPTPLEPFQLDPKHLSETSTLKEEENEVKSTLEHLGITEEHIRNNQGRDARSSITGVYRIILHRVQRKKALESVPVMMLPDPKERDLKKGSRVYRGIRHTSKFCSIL
Assay [4] concerns the target eIF-2-alpha kinase GCN2 (Homo sapiens) (UniProt Q9P2K8). The assay can be described thus: Selectivity interaction (ActivX KiNativ screen (kinase selectivity in THP-1 cell lysates)) EUB0000639a EIF2AK4. The class given is subcellular. To be noted: lysate, at 0.04 µM.
The target in assay [5] is Proto-oncogene tyrosine-protein kinase Src (Homo sapiens, UniProt P12931). The assay can be described thus: Selectivity interaction (ActivX KiNativ screen (kinase selectivity in THP-1 cell lysates)) EUB0000639a SRC. Type of assay: subcellular. To be noted: lysate.
Sequence of Proto-oncogene tyrosine-protein kinase Src (P12931 2-536 limits assumed): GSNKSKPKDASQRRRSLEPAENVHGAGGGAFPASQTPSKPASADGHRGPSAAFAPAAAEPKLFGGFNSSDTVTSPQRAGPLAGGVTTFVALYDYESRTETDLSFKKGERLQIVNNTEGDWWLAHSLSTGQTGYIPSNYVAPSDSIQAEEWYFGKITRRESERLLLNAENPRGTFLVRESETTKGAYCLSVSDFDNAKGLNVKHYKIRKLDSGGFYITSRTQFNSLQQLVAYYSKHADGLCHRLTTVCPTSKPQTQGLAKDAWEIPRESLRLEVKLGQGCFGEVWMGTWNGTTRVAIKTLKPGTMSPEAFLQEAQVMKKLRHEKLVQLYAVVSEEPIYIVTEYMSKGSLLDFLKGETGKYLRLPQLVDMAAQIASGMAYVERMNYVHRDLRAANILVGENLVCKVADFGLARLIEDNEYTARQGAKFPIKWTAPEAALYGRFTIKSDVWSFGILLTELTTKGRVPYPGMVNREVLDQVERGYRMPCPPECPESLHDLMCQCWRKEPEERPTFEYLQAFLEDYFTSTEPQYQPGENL
For assay [6], the target named is Mitogen-activated protein kinase kinase kinase 8 (Homo sapiens, UniProt P41279). The assay can be described thus: Selectivity interaction (ProQinase) EUB0000171b MAP3K8.
Sequence of Mitogen-activated protein kinase kinase kinase 8 (P41279 whole entry): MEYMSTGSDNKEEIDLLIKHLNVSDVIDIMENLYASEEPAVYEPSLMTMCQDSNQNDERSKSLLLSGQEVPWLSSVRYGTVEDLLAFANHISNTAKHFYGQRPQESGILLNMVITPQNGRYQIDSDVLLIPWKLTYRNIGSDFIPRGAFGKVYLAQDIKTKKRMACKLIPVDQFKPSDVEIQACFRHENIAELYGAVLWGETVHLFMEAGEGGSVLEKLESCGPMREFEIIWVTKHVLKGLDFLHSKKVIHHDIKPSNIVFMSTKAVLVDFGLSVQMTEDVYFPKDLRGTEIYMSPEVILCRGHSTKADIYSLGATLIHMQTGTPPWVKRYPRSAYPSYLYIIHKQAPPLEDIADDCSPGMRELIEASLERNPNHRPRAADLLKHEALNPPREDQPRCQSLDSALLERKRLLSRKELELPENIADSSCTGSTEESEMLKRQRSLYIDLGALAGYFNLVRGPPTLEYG
In assay [7] the target is T1, Receptor-interacting serine/threonine-protein kinase 4 (Homo sapiens) (UniProt P57078).
T1 sequence (whole entry): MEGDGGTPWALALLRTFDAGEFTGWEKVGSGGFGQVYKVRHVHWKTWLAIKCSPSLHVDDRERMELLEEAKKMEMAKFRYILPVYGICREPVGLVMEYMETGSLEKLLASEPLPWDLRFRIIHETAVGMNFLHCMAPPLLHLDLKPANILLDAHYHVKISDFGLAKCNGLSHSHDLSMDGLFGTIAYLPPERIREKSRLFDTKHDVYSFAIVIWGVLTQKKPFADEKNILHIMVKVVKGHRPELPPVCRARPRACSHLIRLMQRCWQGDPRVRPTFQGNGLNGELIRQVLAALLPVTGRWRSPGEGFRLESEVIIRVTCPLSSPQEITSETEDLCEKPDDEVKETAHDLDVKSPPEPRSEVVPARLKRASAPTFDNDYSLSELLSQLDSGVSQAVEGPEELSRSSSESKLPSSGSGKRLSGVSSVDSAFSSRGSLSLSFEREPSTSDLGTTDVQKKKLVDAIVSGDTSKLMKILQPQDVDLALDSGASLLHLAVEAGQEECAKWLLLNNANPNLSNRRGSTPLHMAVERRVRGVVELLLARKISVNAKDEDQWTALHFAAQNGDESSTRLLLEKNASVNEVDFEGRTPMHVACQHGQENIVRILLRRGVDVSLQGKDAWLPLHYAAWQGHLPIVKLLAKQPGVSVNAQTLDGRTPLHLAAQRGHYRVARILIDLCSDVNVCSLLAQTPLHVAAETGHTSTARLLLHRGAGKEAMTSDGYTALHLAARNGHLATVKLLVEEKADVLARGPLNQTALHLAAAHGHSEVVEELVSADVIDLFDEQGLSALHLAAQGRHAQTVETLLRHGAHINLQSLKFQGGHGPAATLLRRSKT
The assay can be described thus: Selectivity interaction (KinomeScan (DiscoverX)) EUB0000655a RIPK4. The settings on record: at 10 µM.

Assay [8] addresses Eukaryotic translation initiation factor 2-alpha kinase 1 (Homo sapiens) (UniProt Q9BQI3). The assay can be described thus: Selectivity interaction (KinomeScan (DiscoverX)) EUB0000618a EIF2AK1. To be noted: at 10 µM.
Assay [9] concerns the target T2, Discoidin domain-containing receptor 2 (Homo sapiens) (UniProt Q16832).
T2 sequence (whole entry): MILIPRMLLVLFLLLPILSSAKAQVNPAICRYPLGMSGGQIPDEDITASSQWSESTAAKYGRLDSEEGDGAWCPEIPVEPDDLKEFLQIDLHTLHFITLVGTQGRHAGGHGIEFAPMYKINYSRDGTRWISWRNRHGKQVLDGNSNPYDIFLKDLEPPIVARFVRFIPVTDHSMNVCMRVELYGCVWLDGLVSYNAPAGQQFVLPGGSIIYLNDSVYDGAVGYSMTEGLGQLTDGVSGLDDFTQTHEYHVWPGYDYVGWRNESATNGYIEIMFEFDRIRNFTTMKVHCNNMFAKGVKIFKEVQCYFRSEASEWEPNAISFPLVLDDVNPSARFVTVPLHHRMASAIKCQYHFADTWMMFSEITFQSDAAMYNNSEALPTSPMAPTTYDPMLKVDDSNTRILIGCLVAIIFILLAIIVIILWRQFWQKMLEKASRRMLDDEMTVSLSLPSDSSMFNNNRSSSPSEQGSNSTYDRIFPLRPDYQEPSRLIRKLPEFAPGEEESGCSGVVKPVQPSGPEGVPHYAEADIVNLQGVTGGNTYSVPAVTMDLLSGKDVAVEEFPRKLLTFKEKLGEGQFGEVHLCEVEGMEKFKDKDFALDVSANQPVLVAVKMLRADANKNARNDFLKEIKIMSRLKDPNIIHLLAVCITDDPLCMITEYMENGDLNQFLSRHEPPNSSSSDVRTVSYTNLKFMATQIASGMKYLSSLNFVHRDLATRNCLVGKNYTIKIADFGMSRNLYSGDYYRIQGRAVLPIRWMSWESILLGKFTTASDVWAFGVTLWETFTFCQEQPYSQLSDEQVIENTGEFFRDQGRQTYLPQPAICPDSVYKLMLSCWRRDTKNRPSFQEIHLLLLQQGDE
Description: Selectivity interaction (KinomeScan (DiscoverX)) EUB0000092b DDR2. The settings on record: at 10 µM.

Assay [10] has as its target Vascular endothelial growth factor receptor 2 (Homo sapiens, UniProt P35968). The assay can be described thus: Selectivity interaction (KinomeScan (DiscoverX)) EUB0000092b KDR. The settings on record: at 10 µM.
The target of assay [11] is T3, Aurora kinase A (Homo sapiens) (UniProt O14965).
T3 sequence (whole entry): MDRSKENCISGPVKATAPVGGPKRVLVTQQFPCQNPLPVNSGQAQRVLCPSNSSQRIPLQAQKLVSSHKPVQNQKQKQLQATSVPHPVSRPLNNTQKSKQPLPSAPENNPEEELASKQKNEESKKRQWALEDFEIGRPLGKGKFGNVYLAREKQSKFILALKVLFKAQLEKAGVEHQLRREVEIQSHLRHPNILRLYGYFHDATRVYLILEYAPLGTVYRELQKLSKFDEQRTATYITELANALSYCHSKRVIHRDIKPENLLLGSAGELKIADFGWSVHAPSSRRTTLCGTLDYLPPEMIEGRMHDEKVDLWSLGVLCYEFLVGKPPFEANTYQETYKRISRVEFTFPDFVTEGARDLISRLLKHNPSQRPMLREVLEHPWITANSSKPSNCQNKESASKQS
The assay can be described thus: Selectivity interaction (KinomeScan (DiscoverX)) EUB0001079a STK6. To be noted: at 1 µM.

Some results are limits rather than exact numbers.

Sequence of eIF-2-alpha kinase GCN2 (Homo sapiens) (Q9P2K8 whole entry): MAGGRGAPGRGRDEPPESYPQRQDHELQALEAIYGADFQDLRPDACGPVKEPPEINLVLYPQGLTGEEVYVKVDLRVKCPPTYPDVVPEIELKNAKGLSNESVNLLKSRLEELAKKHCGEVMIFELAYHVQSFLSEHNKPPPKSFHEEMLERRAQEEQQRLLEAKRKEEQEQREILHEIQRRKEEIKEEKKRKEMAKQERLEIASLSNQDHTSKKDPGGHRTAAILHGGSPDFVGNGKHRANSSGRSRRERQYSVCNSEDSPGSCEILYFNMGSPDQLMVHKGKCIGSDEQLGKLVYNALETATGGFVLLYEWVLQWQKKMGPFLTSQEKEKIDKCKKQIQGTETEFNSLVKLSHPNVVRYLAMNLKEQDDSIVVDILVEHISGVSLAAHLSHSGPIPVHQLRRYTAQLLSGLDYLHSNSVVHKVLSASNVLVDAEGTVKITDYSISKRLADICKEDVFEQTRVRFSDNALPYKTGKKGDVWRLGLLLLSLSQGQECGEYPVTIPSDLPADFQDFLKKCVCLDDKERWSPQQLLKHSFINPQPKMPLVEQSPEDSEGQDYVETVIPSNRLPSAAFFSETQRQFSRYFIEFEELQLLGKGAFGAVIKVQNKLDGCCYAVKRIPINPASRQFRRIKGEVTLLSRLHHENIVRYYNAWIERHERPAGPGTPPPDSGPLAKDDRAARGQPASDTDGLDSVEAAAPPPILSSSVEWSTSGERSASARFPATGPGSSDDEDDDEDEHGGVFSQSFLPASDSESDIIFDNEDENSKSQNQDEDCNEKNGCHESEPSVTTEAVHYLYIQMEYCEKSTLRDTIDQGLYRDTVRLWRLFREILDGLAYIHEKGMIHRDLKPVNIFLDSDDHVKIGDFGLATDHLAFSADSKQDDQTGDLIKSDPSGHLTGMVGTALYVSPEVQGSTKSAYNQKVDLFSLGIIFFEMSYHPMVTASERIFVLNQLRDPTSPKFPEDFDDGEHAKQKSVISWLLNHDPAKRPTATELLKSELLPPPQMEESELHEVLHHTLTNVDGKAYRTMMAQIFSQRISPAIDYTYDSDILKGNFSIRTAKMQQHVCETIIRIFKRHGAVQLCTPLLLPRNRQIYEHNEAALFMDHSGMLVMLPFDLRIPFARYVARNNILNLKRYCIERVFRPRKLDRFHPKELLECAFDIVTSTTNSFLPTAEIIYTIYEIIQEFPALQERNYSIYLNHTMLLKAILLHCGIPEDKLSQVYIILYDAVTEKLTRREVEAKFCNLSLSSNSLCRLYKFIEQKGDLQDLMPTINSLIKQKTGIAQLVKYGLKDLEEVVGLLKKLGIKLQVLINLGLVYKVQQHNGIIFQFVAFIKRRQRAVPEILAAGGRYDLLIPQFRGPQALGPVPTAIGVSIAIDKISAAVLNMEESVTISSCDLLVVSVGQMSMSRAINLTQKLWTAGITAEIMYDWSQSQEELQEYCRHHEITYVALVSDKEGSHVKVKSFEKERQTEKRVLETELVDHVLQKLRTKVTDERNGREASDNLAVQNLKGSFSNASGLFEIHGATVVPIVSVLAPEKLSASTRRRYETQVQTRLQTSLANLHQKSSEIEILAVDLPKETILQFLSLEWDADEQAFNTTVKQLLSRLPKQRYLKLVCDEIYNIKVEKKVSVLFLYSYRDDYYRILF
Sequence of Eukaryotic translation initiation factor 2-alpha kinase 1 (Homo sapiens) (Q9BQI3 whole entry, the tested form may be a part): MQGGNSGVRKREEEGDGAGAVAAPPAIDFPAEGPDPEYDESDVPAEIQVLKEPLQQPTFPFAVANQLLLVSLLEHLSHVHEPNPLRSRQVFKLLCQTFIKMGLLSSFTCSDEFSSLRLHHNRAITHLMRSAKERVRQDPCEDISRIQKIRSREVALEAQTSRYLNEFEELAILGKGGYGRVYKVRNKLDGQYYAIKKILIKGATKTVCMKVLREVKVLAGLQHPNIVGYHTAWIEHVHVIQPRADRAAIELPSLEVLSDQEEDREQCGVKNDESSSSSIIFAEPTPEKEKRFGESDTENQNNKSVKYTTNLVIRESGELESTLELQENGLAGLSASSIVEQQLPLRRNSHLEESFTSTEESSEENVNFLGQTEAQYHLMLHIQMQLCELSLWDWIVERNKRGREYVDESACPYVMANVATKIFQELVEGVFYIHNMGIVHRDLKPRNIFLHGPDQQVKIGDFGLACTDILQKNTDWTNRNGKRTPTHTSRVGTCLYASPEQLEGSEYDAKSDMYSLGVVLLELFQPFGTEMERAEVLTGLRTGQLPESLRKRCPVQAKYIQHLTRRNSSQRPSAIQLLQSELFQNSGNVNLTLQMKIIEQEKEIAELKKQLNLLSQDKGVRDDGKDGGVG

For `Cn1cc(-n2cnc3c(NCc4nc5cc(Cl)c(Cl)cc5[nH]4)nc(N4CCOCC4)nc32)cn1`, the % of inhibition in [1] is -23%. As for `COCCN1CCC(c2cc(CN(C)C(=O)c3cccc(Oc4ccccc4)c3)ccn2)CC1`, the % activity in [2] (at 1 µM) is > 95%; in assay [2] (at 10 µM), > 90%. As for `Cc1cc([C@@H](C)Nc2ccccc2C(=O)O)c2nc(N3CCOCC3)cc(=O)n2c1` [AZD-6482], the % of control in assay [3] worked out at 100%. Consider `CC[C@@H]1[C@H](F)C(=O)N[C@@H]1COc1nccc2cc(C(N)=O)c(OC)cc12` [ZIMLOVISERTIB], for which the % of inhibition in assay [4] was 0.9%; in [5] (at 0.01 µM) it was -8.5%; in assay [5] (at 0.04 µM), -0.2%; in assay [5] (at 0.2 µM) it was 0.7%; in [5] (at 1 µM), -11%; in [5] (at 5 µM), -13.3%. As to `C=CC(=O)Nc1cccc(C(=O)Nc2ccc(Nc3cc(-c4[nH]c(SC)nc4C)ccn3)cc2)c1`, the results for the % of control in assay [6] (at 1 µM) and in [6] (at 5 µM) were 95% and 103%, respectively. In [7], `CN(C)CCOc1ccc(-c2nc(-c3ccncc3)c(-c3ccc4c(c3)CC/C4=N\O)[nH]2)cc1` showed a % of control of 100%.

In assay [8], `O[C@H]1CC[C@H](Nc2ncc3nc(Nc4c(F)cc(F)cc4F)n([C@H]4CCOC4)c3n2)CC1` registered a % of control of 100%. As for `CCC(=O)N1CCN(c2ccc(-n3c(=O)ccc4cnc5ccc(-c6cnc7ccccc7c6)cc5c43)cc2C(F)(F)F)CC1`, the figures for the % of control in assay [9] and in assay [10] were 100% and 65%, respectively. As for `Nc1cnc(N2CCc3cc(S(=O)(=O)Nc4c(F)cc(Cl)cc4F)cc(N4CCCC4=O)c32)nc1` [TP-020n], the % of control in assay [11] was found to be 100%.
